Legend:
[1] = target: T1, Recombinant human cathepsin A (Homo sapiens, UniProt P10619); assay: Cathepsin A inhibitory activity; assay type: biochemical; details: activated recombinant human cathepsin A 833 ng/ml, Bodipy FL-labeled bradykinin 2 μM, pH 5.5, 15 min room temperature
T1 construct: Recombinant human cathepsin A (residues 29-480, with a C-terminal 10-His tag); 10-His (C); purchased R&D Systems 1049-SE
T1 sequence (P10619 29-326 limits assumed): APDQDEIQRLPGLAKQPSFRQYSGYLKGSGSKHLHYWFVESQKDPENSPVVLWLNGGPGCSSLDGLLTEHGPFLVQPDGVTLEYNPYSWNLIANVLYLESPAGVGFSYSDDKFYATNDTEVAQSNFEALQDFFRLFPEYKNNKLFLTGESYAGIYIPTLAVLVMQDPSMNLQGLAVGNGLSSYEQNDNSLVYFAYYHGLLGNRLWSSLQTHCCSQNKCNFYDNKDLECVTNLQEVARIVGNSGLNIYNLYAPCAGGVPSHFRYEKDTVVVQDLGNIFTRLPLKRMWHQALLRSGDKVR
T1 sequence (P10619 327-480 limits assumed): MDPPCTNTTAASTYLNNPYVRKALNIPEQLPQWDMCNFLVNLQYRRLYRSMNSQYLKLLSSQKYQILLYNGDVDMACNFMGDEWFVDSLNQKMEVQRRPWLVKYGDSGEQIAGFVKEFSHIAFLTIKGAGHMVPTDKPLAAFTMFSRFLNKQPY
Method: a) Cathepsin a Inhibitory Activity
Recombinant human cathepsin A (residues 29-480, with a C-terminal 10-His tag; R&D Systems, #1049-SE) was proteolytically activated with recombinant human cathepsin L (R&D Systems, #952-CY). Briefly, cathepsin A was incubated at 10 μg/ml with cathepsin L at 1 μg/ml in activation buffer (25 mM 2-(morpholin-4-yl)-ethanesulfonic acid (MES), pH 6.0, containing 5 mM dithiothreitol (DTT)) for 15 min at 37° C. Cathepsin L activity was then stopped by the addition of the cysteine protease inhibitor E-64 (N-(trans-epoxysuccinyl)-L-leucine-4-guanidinobutylamide; Sigma-Aldrich, #E3132; dissolved in activation buffer/DMSO) to a final concentration of 10 μM.
The activated cathepsin A was diluted in assay buffer (25 mM MES, pH 5.5, containing 5 mM DTT) and mixed with the test compound (dissolved in assay buffer containing (v/v) 3% DMSO) or, in the control experiments, with the vehicle in a multiple assay plate. After incubation for 15 min at room temperature, as substrate then bradykinin carrying an N-Terminal®Bodipy FL (4,4-difluoro-5,7-dimethyl-4-bora-3a,4a-diaza-s-indacene-3-propionyl) label (JPT Peptide Technologies GmbH; dissolved in assay buffer) was added to the mixture. The final concentration of cathepsin A was 833 ng/ml and the final concentration of labeled bradykinin 2 μM. After incubation for 15 min at room temperature the reaction was stopped by the addition of stop buffer (130 mM 2-(4-(2-hydroxy-ethyl)-piperazin-1-yl)-ethanesulfonic acid, pH 7.4, containing (v/v) 0.013%®Triton X-100, 0.13% Coating Reagent 3 (Caliper Life Sciences), 6.5% DMSO and 20 μM ebelactone B (Sigma, #E0886)).
Uncleaved substrate and product were then separated by a microfluidic capillary electrophoresis on a LabChip® 3000 Drug Discovery System (12-Sipper-Chip; Caliper Life Sciences) and quantified by determination of the respective peak areas. Substrate turnover was calculated by dividing product peak area by the sum of substrate and product peak areas, and the enzyme activity and the inhibitory effect of the test compound thus quantified. From the percentage of inhibition of cathepsin A activity observed with the test compound at several concentrations, the inhibitory concentration IC50, i.e. the concentration which effects 50% inhibition of enzyme activity was, calculated.

platelet aggregation = details: hypertensive animals; H. Ostrowska et al., J. Cardiovasc. Pharmacol. 45 (2005); cited from earlier work

Row | SMILES | IC50 [1] | platelet aggregation (platelet aggregation)
1 | CN(C(=O)c1ccccc1)c1cc(C(=O)N[C@@H](CC(=O)O)c2ccccc2Cl)nn1-c1ccccc1 [Example 70, (S)-3-{[5-(Benzoyl-methyl-amino)-1-phenyl-1H-pyrazole-3-carbonyl]-amino}-3-(2-chloro-phenyl)-propionic acid] | 5.7 nM | 
2 | CN(C(=O)c1ccccc1)c1cc(C(=O)N[C@@H](CC(=O)O)c2cccc(Cl)c2)nn1-c1ccccc1 [Example 71, (S)-3-{[5-(Benzoyl-methyl-amino)-1-phenyl-1H-pyrazole-3-carbonyl]-amino}-3-(3-chloro-phenyl)-propionic acid] | 56.7 nM | 
3 | Cc1ccc([C@H](CC(=O)O)NC(=O)c2cc(N(C)C(=O)c3ccccc3)n(-c3ccccc3)n2)cc1 [Example 72, (S)-3-{[5-(Benzoyl-methyl-amino)-1-phenyl-1H-pyrazole-3-carbonyl]-amino}-3-p-tolyl-propionic acid] | 102 nM | 
4 | O=C(O)CC(NC(=O)c1cc(NC(=O)c2ccccc2)n(-c2ccccc2)n1)C1CCCCC1 (centres unmarked) [Example 74, 3-[(5-Benzoylamino-1-phenyl-1H-pyrazole-3-carbonyl)-amino]-3-cyclohexyl-propionic acid] | 78.6 nM | 
5 | O=C(O)CC(Cc1ccccc1)NC(=O)c1cc(NC(=O)c2ccccc2)n(-c2ccccc2)n1 (centres unmarked) [Example 75, 3-[(5-Benzoylamino-1-phenyl-1H-pyrazole-3-carbonyl)-amino]-4-phenyl-butyric acid] | 370 nM | 
6 | CC(C)C[C@@H](CC(=O)O)NC(=O)c1cc(NC(=O)c2ccccc2)n(-c2ccccc2)n1 [Example 76, (S)-3-[(5-Benzoylamino-1-phenyl-1H-pyrazole-3-carbonyl)-amino]-5-methyl-hexanoic acid] | 22000 nM | 
7 | O=C(O)CC1(NC(=O)c2cc(NC(=O)c3ccccc3)n(-c3ccccc3)n2)CCCC1 [Example 77, {1-[(5-Benzoylamino-1-phenyl-1H-pyrazole-3-carbonyl)-amino]-cyclopentyl}-acetic acid] | 73.4 nM | 
8 | O=C(O)C[C@H](NC(=O)c1cc(NC(=O)c2ccccc2)n(-c2ccccc2)n1)c1ccc(F)cc1 [Example 78, (S)-3-[(5-Benzoylamino-1-phenyl-1H-pyrazole-3-carbonyl)-amino]-3-(4-fluoro-phenyl)-propionic acid] | 34.1 nM | 
9 | CC[C@@H](C)[C@@H](O)[C@H](C)C(=O)[C@H](C)/C=C(\C)C[C@H](C)[C@@H]1OC(=O)[C@H]1CC [ebelactone B] |  | suppresses platelet aggregation

Continued, in another order:

Row | IC50 [1] | SMILES | platelet aggregation (platelet aggregation)
10 | 108 nM | Cc1ccc([C@H](CC(=O)O)NC(=O)c2cc(NC(=O)c3ccccc3)n(-c3ccccc3)n2)c(C)c1 [Example 79, (S)-3-[(5-Benzoylamino-1-phenyl-1H-pyrazole-3-carbonyl)-amino]-3-(2,4-dimethyl-phenyl)-propionic acid] | 
11 | 4870 nM | O=C(Nc1cc(C(=O)NCC(C(=O)O)c2ccccc2)nn1-c1ccccc1)c1ccccc1 (centres unmarked) [Example 82, 3-[(5-Benzoylamino-1-phenyl-1H-pyrazole-3-carbonyl)-amino]-2-phenyl-propionic acid] | 
12 | 147 nM | O=C(O)C[C@H](NC(=O)c1cc(NC(=O)c2ccccc2)n(-c2ccccc2)n1)c1ccccc1F [Example 83, (S)-3-[(5-Benzoylamino-1-phenyl-1H-pyrazole-3-carbonyl)-amino]-3-(2-fluoro-phenyl)-propionic acid] | 
13 | 386 nM | O=C(O)C[C@H](NC(=O)c1cc(NC(=O)c2ccccc2)n(-c2ccccc2)n1)c1ccccc1C(F)(F)F [Example 84, (S)-3-[(5-Benzoylamino-1-phenyl-1H-pyrazole-3-carbonyl)-amino]-3-(2-trifluoromethyl-phenyl)-propionic acid] | 
14 | 80.2 nM | CCNc1cc(C(=O)N[C@@H](CC(=O)O)c2ccccc2C)nn1-c1ccccc1 [Example 85, (S)-3-[(5-Ethylamino-1-phenyl-1H-pyrazole-3-carbonyl)-amino]-3-o-tolyl-propionic acid] | 
